Measurements published in the NIST ThermoML archive (doi:10.1021/je800579j).

Test: refractive index (Na D-line) (dimensionless); xn = mol fraction of the nth substance listed
Settings: Liquid, Standard Abbe refractometry

Cc1cccc(C)c1 [1,3-dimethylbenzene] + C1COCCO1
refractive index
Settings	288.15 K	293.15 K	298.15 K	303.15 K	308.15 K	313.15 K	318.15 K
x2 = 0	1.4999	1.4974	1.4948	1.4922	1.4896	1.487	1.4844
x2 = 0.0938	1.4933	1.4907	1.488	1.4853	1.4826	1.4799	1.4772
x2 = 0.1532	1.489	1.4864	1.4837	1.4811	1.4783	1.4756	1.4728
x2 = 0.2046	1.4852	1.4826	1.4799	1.4772	1.4745	1.4718	1.4691
x2 = 0.2698	1.4805	1.4779	1.4753	1.4726	1.4699	1.4672	1.4645
x2 = 0.3374	1.4755	1.473	1.4704	1.4677	1.4651	1.4624	1.4597
x2 = 0.4002	1.4709	1.4684	1.4658	1.4632	1.4606	1.458	1.4553
x2 = 0.4714	1.4656	1.4631	1.4606	1.458	1.4555	1.4529	1.4503
x2 = 0.5487	1.4598	1.4574	1.4549	1.4524	1.4498	1.4473	1.4447
x2 = 0.63	1.4536	1.4512	1.4487	1.4462	1.4437	1.4412	1.4387
x2 = 0.7182	1.4468	1.4444	1.442	1.4395	1.4371	1.4346	1.4321
x2 = 0.8035	1.4401	1.4378	1.4354	1.4329	1.4305	1.428	1.4256
x2 = 0.8708	1.4348	1.4325	1.4302	1.4279	1.4255	1.4231	1.4206
x2 = 0.9324	1.4299	1.4277	1.4255	1.4232	1.4209	1.4186	1.4163

Cc1ccc(C)cc1 [1,4-dimethylbenzene] + C1COCCO1
refractive index
Settings	288.15 K	293.15 K	298.15 K	303.15 K	308.15 K	313.15 K	318.15 K
x2 = 0	1.4985	1.4959	1.4933	1.4907	1.4881	1.4855	1.483
x2 = 0.0716	1.4937	1.4911	1.4884	1.4858	1.4831	1.4805	1.4778
x2 = 0.1445	1.4887	1.4861	1.4834	1.4808	1.4781	1.4754	1.4727
x2 = 0.2132	1.4839	1.4813	1.4786	1.476	1.4733	1.4706	1.468
x2 = 0.2871	1.4787	1.4761	1.4734	1.4708	1.4681	1.4655	1.4628
x2 = 0.3582	1.4736	1.471	1.4684	1.4658	1.4632	1.4606	1.458
x2 = 0.4358	1.468	1.4655	1.4629	1.4604	1.4578	1.4552	1.4526
x2 = 0.5042	1.4629	1.4604	1.4579	1.4554	1.4529	1.4503	1.4478
x2 = 0.5846	1.4569	1.4544	1.452	1.4495	1.447	1.4445	1.442
x2 = 0.6543	1.4516	1.4492	1.4467	1.4443	1.4418	1.4394	1.4369
x2 = 0.7249	1.4462	1.4438	1.4414	1.439	1.4365	1.4341	1.4316
x2 = 0.7923	1.441	1.4386	1.4362	1.4338	1.4314	1.429	1.4266
x2 = 0.8623	1.4355	1.4332	1.4309	1.4286	1.4262	1.4238	1.4214
x2 = 0.9311	1.4301	1.4279	1.4256	1.4234	1.4211	1.4188	1.4165

C1COCCO1 [1,4-dioxane] + Cc1ccccc1
refractive index
Settings	288.15 K	293.15 K	298.15 K	303.15 K	308.15 K	313.15 K	318.15 K
x1 = 0.0688	1.4955	1.4927	1.4899	1.487	1.4841	1.4812	1.4783
x1 = 0.1373	1.4914	1.4886	1.4858	1.4829	1.48	1.4771	1.4742
x1 = 0.2112	1.4869	1.4842	1.4814	1.4786	1.4757	1.4729	1.47
x1 = 0.2858	1.4822	1.4795	1.4768	1.474	1.4712	1.4684	1.4655
x1 = 0.3552	1.4775	1.4749	1.4722	1.4695	1.4668	1.464	1.4613
x1 = 0.4361	1.4719	1.4693	1.4667	1.464	1.4614	1.4587	1.456
x1 = 0.5064	1.4668	1.4643	1.4617	1.4591	1.4565	1.4539	1.4512
x1 = 0.5819	1.4611	1.4586	1.4561	1.4536	1.451	1.4484	1.4458
x1 = 0.6506	1.4557	1.4533	1.4508	1.4483	1.4458	1.4433	1.4408
x1 = 0.7212	1.4499	1.4475	1.4451	1.4427	1.4403	1.4378	1.4353
x1 = 0.7903	1.444	1.4417	1.4393	1.437	1.4346	1.4322	1.4298
x1 = 0.864	1.4374	1.4352	1.4329	1.4306	1.4283	1.426	1.4236
x1 = 0.9336	1.431	1.4288	1.4266	1.4244	1.4222	1.4199	1.4176
x1 = 1	1.4245	1.4224	1.4203	1.4182	1.4161	1.4139	1.4117
